The source of these data is patent US20090215625A1, “Combinations of Herbicides and Safeners” (priority 2008, published 2009).

Read-outs that look alike come from different tables or passages of the source.

Data set [1] relates to Geranium carolinianum. The experiment in a line: Broadleaf weed control (JSM 08-5), Geranium carolinianum. The format is in vivo. An excerpt:
(§1) Treatments were applied with a CO2 pressurized spray system at a volume of 280 L ha^−1. A four nozzle spray boom utilizing 8002 XR flat fan nozzles (Spraying Systems, Inc, Wheaton, Ill.) on 25 cm spacing and a height of 25 cm was utilized. Spray pressure at the nozzle was 22 PSI and ground speed was 5 km/h. All treatments were applied with 0.25% v/v non-ionic surfactant (X-77 Non-Ionic Surfactant; Helena Chemical Company, Memphis, Tenn.).

The test system of data set [2] is Stellaria media. In words: Broadleaf weed control (JSM 08-5), Stellaria media. Format: in vivo.
Source text: as §1

Data set [3] has as its system Lamium amplexicaule. In words: Broadleaf weed control (JSM 08-5), Lamium amplexicaule. The format is in vivo.
Source text: as §1

Data set [4] deals with 'Palmetto' St. Augustinegrass. As to conditions: in vivo.
The test system of data set [5] is 'Tifway' bermudagrass. As to conditions: in vivo.
The subject of data set [6] is 'Meyer' zoysiagrass. As to conditions: in vivo.
Data set [7] deals with large crabgrass. In words: Large crabgrass control comparison. As to conditions: 1 to 2 tiller growth stage. Format: in vivo, Digitaria spp.
Data set [8] relates to 'Palmetto' St. Augustinegrass. The experiment in a line: Run one visual turfgrass injury, St. Augustinegrass (JSM 08-8). As to conditions: Rate 0.25 kg ai/ha.
Data set [9] deals with 'Meyer' zoysiagrass. The experiment in a line: Run one visual turfgrass injury, zoysiagrass (JSM08-6). As to conditions: Rate 0.25 kg ai/ha.
The test system of data set [10] is St. Augustinegrass turf. The experiment in a line: Safening comparison of propoxycarbazone and flucarbazone, St. Augustinegrass injury.
Data set [11] has as its system bermudagrass turf. The experiment in a line: Safening comparison of propoxycarbazone and flucarbazone, bermudagrass injury.
Data set [12] has as its system 'Palmetto' St. Augustinegrass. The experiment in a line: Run two visual turfgrass injury, St. Augustinegrass (JSM08-14).
Data set [13] has as its system 'Tifway' bermudagrass. The experiment in a line: Run one visual turfgrass injury, bermudagrass (JSM 08-4). As to conditions: Rate 0.25 kg ai/ha.
Data set [14] deals with 'Meyer' zoysiagrass. The experiment in a line: Run two visual turfgrass injury, zoysiagrass (JSM08-15).
For data set [15], the system named is 'Tifway' bermudagrass. In words: Run two visual turfgrass injury, bermudagrass (JSM 08-14).
For data set [16], the system named is St. Augustinegrass. As to conditions: in vivo.
Data set [17] concerns bermudagrass turf. In words: Tembotrione safening with flucarbazone, bermudagrass injury. As to conditions: in vivo. Also noted: species or system Cynodon dacytlon.
Source text: as §1
Tembotrione is a carotenoid biosynthesis inhibiting herbicide that injures bermudagrass. Table 5 refers to research data evaluating the safening of flucarbazone when combined with tembotrione. Tembotrione applied at 0.023 to 0.092 kg/ha injured bermudagrass turf from 30 to 72%; with the greatest injury occurring at 0.092. All tembotrione plus flucarbazone treatments reduced bermudagrass injury when compared to the equivalent rates of tembotrione alone. Tembotrione (at 0.092 kg/ha) plus flucarbazone at 0.015 or 0.029 kg/ha injured bermudagrass 20; however, flucarbazone at 0.059 reduced bermudagrass injury greater to 8%. It is likely that higher rates of flucarbazone will be needed to provide adequate bermudagrass safening as higher rates of tembotrione are applied.

In the case of `COc1c(Cl)ccc(Cl)c1C(=O)O` [Dicamba], the “Weed Control 21 DAT Geranium carolinianum” value in [1] (Rate 0.28 kg ai/ha) was found to be 73%. For the same compound, the “Weed Control 21 DAT Stellaria media” value in data set [2] (Rate 0.28 kg ai/ha) stood at 65%. In addition, the “Weed Control 21 DAT Lamium amplexicaule” value in [3] (Rate 0.28 kg ai/ha) is 10%.

Regarding `COc1nn(C(=O)NS(=O)(=O)c2ccccc2OC(F)(F)F)c(=O)n1C` [Flucarbazone, 4,5-dihydro-3-methoxy-4-methyl-5-oxo-N-[2-(trifluoromethoxy)phenylsulfonyl]-1H-1,2,4-triazole-1-carboxamide], the “Visual Turfgrass Injury ~13 DAT St. Augustinegrass (JSM 08-8)” value in data set [4] was 0%. Also, the figures for the “Weed Control 21 DAT Geranium carolinianum” value in [1] (Rate 0.007 kg ai/ha) and in [1] (Rate 0.029 kg ai/ha) were 62% and 55%, respectively. The “Weed Control 21 DAT Stellaria media” value in data set [2] (Rate 0.007 kg ai/ha) was 35%; in [2] (Rate 0.029 kg ai/ha), 62%. The “Visual Turfgrass Injury ~13 DAT Bermudagrass (JSM 08-4)” value in data set [5] turned out to be 0%. The “Visual Turfgrass Injury ~20 DAT Bermudagrass (JSM 08-4)” value in data set [5] came to 0%. In addition, the entries for the “Weed Control 21 DAT Lamium amplexicaule” value in [3] (Rate 0.007 kg ai/ha) and in data set [3] (Rate 0.029 kg ai/ha) were 3% and 10%, respectively. For the same compound, in data set [6], the “Visual Turfgrass Injury ~13 DAT Zoysiagrass (JSM08-6)” value turned out to be 0%. Also, the “Visual Turfgrass Injury ~20 DAT Zoysiagrass (JSM08-6)” value in data set [6] came to 0%. For the same compound, the “Large Crabgrass Control 21 DAT” value in [7] (Rate 0.009 kg ai/ha) worked out at 17%. The “Large Crabgrass Control 51 DAT” value in data set [7] (Rate 0.009 kg ai/ha) was found to be 0%.

Turning to `CS(=O)(=O)c1ccc(C(=O)C2C(=O)CCCC2=O)c([N+](=O)[O-])c1` [Mesotrione, 2-(4-methylsulfonyl-2-nitrobenzoyl)cyclohexane-1,3-dione], the “Weed Control 21 DAT Geranium carolinianum” value in data set [1] (Rate 0.28 kg ai/ha) stood at 20%. Further, in data set [8], the “Visual Turfgrass Injury ~13 DAT St. Augustinegrass (JSM 08-8)” value was found to be 5% and the “Visual Turfgrass Injury ~20 DAT St. Augustinegrass (JSM08-8)” value was 12%. For the same compound, the “Visual Turfgrass Injury ~13 DAT Zoysiagrass (JSM08-6)” value in data set [9] came to 30%. Also, the “Visual Turfgrass Injury ~20 DAT Zoysiagrass (JSM08-6)” value in data set [9] (rated 22 DAT) came to 0%. Moreover, in data set [2] (Rate 0.28 kg ai/ha), the “Weed Control 21 DAT Stellaria media” value is recorded as 100%. For the same compound, the “Turfgrass Injury 15 DAT St. Augustinegrass” value in data set [10] (Rate 0.42 kg ai/ha) was determined as 35%. Besides, the “Turfgrass Injury 15 DAT Bermudagrass” value in data set [11] (Rate 0.42 kg ai/ha) is 28%. In data set [12] (Rate 0.18 kg ai/ha), the “Visual Turfgrass Injury 7 DAT St. Augustinegrass (JSM08-14)” value worked out at 38% and the “Visual Turfgrass Injury 21 DAT St. Augustinegrass (JSM08-14)” value is given as 32%. Further, in data set [12] (Rate 0.28 kg ai/ha), the “Visual Turfgrass Injury 7 DAT St. Augustinegrass (JSM08-14)” value is 40% and the “Visual Turfgrass Injury 21 DAT St. Augustinegrass (JSM08-14)” value is 33%. In addition, the “Weed Control 21 DAT Lamium amplexicaule” value in data set [3] (Rate 0.28 kg ai/ha) is reported as 100%. For the same compound, in [13], the “Visual Turfgrass Injury ~13 DAT Bermudagrass (JSM 08-4)” value is 12% and the “Visual Turfgrass Injury ~20 DAT Bermudagrass (JSM 08-4)” value stood at 7%. Further, in data set [14] (Rate 0.18 kg ai/ha), the “Visual Turfgrass Injury 7 DAT Zoysiagrass (JSM08-15)” value was found to be 18% and the “Visual Turfgrass Injury 21 DAT Zoysiagrass (JSM08-15)” value is reported as 20%. Also, in data set [14] (Rate 0.28 kg ai/ha), the “Visual Turfgrass Injury 7 DAT Zoysiagrass (JSM08-15)” value worked out at 22% and the “Visual Turfgrass Injury 21 DAT Zoysiagrass (JSM08-15)” value is 23%. In data set [15] (Rate 0.18 kg ai/ha), the “Visual Turfgrass Injury 7 DAT Bermudagrass (JSM 08-14)” value worked out at 32% and the “Visual Turfgrass Injury 21 DAT Bermudagrass (JSM 08-14)” value stood at 23%. In data set [15] (Rate 0.28 kg ai/ha), the “Visual Turfgrass Injury 7 DAT Bermudagrass (JSM 08-14)” value turned out to be 35% and the “Visual Turfgrass Injury 21 DAT Bermudagrass (JSM 08-14)” value is on record as 27%. In data set [7] (Rate 0.175 kg ai/ha), the “Large Crabgrass Control 21 DAT” value is recorded as 95% and the “Large Crabgrass Control 51 DAT” value was found to be 78%.

Turning to `CCCOc1nn(C(=O)NS(=O)(=O)c2ccccc2C(=O)OC)c(=O)n1C` [Propoxycarbazone, methyl 2-[(4,5-dihydro-4-methyl-5-oxo-3-propoxy-1H-1,2,4-triazole-1-carboxamido)sulfonyl]benzoate], the “Turfgrass Injury 15 DAT St. Augustinegrass” value in data set [10] (Rate 0.044 kg ai/ha), in data set [10] (Rate 0.088 kg ai/ha) and in data set [10] (Rate 0.177 kg ai/ha) was 0% throughout. The “Turfgrass Injury 15 DAT Bermudagrass” value in [11] (Rate 0.044 kg ai/ha), in [11] (Rate 0.088 kg ai/ha) and in data set [11] (Rate 0.177 kg ai/ha) was 0% in each case.

Regarding `CS(=O)(=O)c1ccc(C(=O)C2C(=O)CCCC2=O)c(Cl)c1COCC(F)(F)F` [Tembotrione, 2-{2-chloro-4-mesyl-3-[(2,2,2-trifluoroethoxy)methyl]benzoyl}cyclohexane-1,3-dione], in data set [16], the “St. Augustinegrass injury” value is on record as “no injury was observed”. Also, in [17], the “Bermudagrass Injury 23 DAT” value was determined as 0% and the bermudagrass turf injury is 30-72%.
